In ChEMBL document CHEMBL5579892, “Rational Design, Synthesis, and Structure-Activity Relationship of a Novel Isoquinolinone-Based Series of HBV Capsid Assembly Modulators Leading to the Identification of Clinical Candidate AB-836” (J Med Chem, 2024):
Converted amounts (≈) assume the structure as drawn.

Experiments:
Hepatitis B virus = assay: Antiviral activity against HBV infected in HepDE19 cells; format: functional, organism-based
[1] = Cytotoxicity against human HepDE19 cells by CellTiter-Glo analysis; format: toxicity, cell-based
[2] = Kinetic solubility in PBS at pH 7.4; format: physicochemical; settings: read-out: Kinetic_solubility
[3] = Microsomal stability in mouse liver microsomes assessed as intrinsic clearance; format: ADME, Microsome; settings: read-out: CLH
[4] = Microsomal stability in human liver microsomes assessed as intrinsic clearance; format: ADME, Microsome; settings: read-out: CLH

Compound	EC50 (Hepatitis B virus) [µM]	CC50 [1] [µM]	solubility kinetic [2] [µM]	microsomal CLint [3] [µL/min/mg]	microsomal CLint [4] [µL/min/mg]
COc1ccc2c(=O)[nH]cc([C@@H](C)N(C)C(=O)Nc3ccc(F)c(Cl)c3)c2c1	1.4	> 25	42 (≈ 17 µg/mL)	–	–
CC(C)CN(C(=O)Nc1ccc(F)c(Cl)c1)C(C)c1c[nH]c(=O)c2ccccc12 (stereo not given)	0.007	> 25	–	> 300	260
C[C@H](c1c[nH]c(=O)c2c(F)cc(F)cc12)N(C)C(=O)Nc1ccc(F)c(Cl)c1	0.019	> 25	97 (≈ 39.8 µg/mL)	25	25
C[C@H](c1c[nH]c(=O)c2cc(F)c(F)cc12)N(C)C(=O)c1nc2ccccc2[nH]1	0.76	> 25	–	–	–
C[C@H](c1c[nH]c(=O)c2cc(F)c(F)cc12)N(C)C(=O)[C@@H]1Cc2ccccc2N1	0.022	> 25	62 (≈ 23.8 µg/mL)	375	28
C[C@H](c1c[nH]c(=O)c2cc(F)c(F)cc12)N(C)C(=O)c1cc2ccccc2[nH]1	0.023	> 25	< 4	50	26
CCCCN(Cc1c[nH]c(=O)c2ccccc12)C(=O)Nc1ccc(F)c(Cl)c1	0.08	> 25	–	–	–
C[C@H](c1c[nH]c(=O)c2cc(F)c(F)cc12)N(C)C(=O)Nc1ccccc1	0.11	> 25	–	–	–
C[C@H](c1c[nH]c(=O)c2cc(F)c(F)cc12)N(C)C(=O)Nc1ccc(F)c(Cl)c1	0.007	> 25	42 (≈ 17.2 µg/mL)	23	32
COCCCN(C(=O)Nc1ccc(F)c(Cl)c1)C(C)c1c[nH]c(=O)c2ccccc12 (stereo not given)	0.032	> 25	–	182	54
CC(c1c[nH]c(=O)c2cc(Cl)ccc12)N(C)C(=O)Nc1ccc(F)c(Cl)c1 (racemic)	0.2	> 25	–	–	–
C[C@H](c1c[nH]c(=O)c2c(Cl)cccc12)N(C)C(=O)Nc1ccc(F)c(Cl)c1	0.085	> 25	< 4	–	–
O=C(Nc1ccc(F)c(Cl)c1)N(Cc1c[nH]c(=O)c2ccccc12)C1CC1	0.81	> 25	–	–	–
CC(c1c[nH]c(=O)c2ccccc12)N(CCCO)C(=O)Nc1ccc(F)c(Cl)c1 (stereo not given)	0.01	> 25	–	185	71
C[C@H](c1c[nH]c(=O)c2cc(F)c(F)cc12)N(C)C(=O)Nc1ccc(F)c(F)c1	0.013	> 25	179 (≈ 70.4 µg/mL)	37	25
CCCN(Cc1c[nH]c(=O)c2ccccc12)C(=O)Nc1ccc(F)c(Cl)c1	0.06	> 25	–	–	–
C[C@H](c1c[nH]c(=O)c2ccc(Cl)cc12)N(C)C(=O)Nc1ccc(F)c(Cl)c1	0.12	> 25	18 (≈ 7.35 µg/mL)	–	–
C[C@H](c1c[nH]c(=O)c2cc(F)ccc12)N(C)C(=O)Nc1ccc(F)c(Cl)c1	0.02	> 25	98 (≈ 38.4 µg/mL)	37	28
COc1ncc(CNC(=O)Nc2ccc(F)c(Cl)c2)c2ccccc12	9	–	–	–	–
C[C@H](c1c[nH]c(=O)c2cc(F)c(F)cc12)N(C)C(=O)Nc1cccc(F)c1	0.037	> 25	> 200	35	30
CCCCN(C(=O)Nc1ccc(F)c(Cl)c1)C(C)c1c[nH]c(=O)c2ccccc12 (stereo not given)	0.006	> 25	–	243	143
C[C@H](c1c[nH]c(=O)c2c(F)c(F)ccc12)N(C)C(=O)Nc1ccc(F)c(Cl)c1	0.015	> 25	92 (≈ 37.7 µg/mL)	32	28

Compound	EC50 (Hepatitis B virus) [µM]	CC50 [1] [µM]	solubility kinetic [2] [µM]	microsomal CLint [3] [µL/min/mg]	microsomal CLint [4] [µL/min/mg]
CCCN(C(=O)Nc1ccc(F)c(Cl)c1)[C@H](C)c1c[nH]c(=O)c2ccccc12	0.009	> 25	–	190	110
C[C@H](c1c[nH]c(=O)c2cc(F)c(F)cc12)N(C)C(=O)Nc1cccc(F)c1F	0.29	> 25	–	–	–
C[C@H](c1c[nH]c(=O)c2cc(F)c(F)cc12)N(C)C(=O)c1cc2cc(F)c(F)cc2[nH]1	0.012	> 25	5 (≈ 2.09 µg/mL)	22	14
COc1ncc(CN(C)C(=O)Nc2ccc(F)c(Cl)c2)c2ccccc12	2	–	–	–	–
COCCCN(Cc1c[nH]c(=O)c2ccccc12)C(=O)Nc1ccc(F)c(Cl)c1	0.13	> 25	–	–	–
C[C@H](c1c[nH]c(=O)c2c(F)cccc12)N(C)C(=O)Nc1ccc(F)c(Cl)c1	0.04	> 25	146 (≈ 57.2 µg/mL)	–	–
COCCN(C(=O)Nc1ccc(F)c(Cl)c1)C(C)c1c[nH]c(=O)c2ccccc12 (stereo not given)	0.091	> 25	–	238	69
C[C@H](c1c[nH]c(=O)c2cc(F)c(F)cc12)N(C)C(=O)c1cc2ccc(F)cc2[nH]1	0.022	> 25	12 (≈ 4.79 µg/mL)	33	13
COc1cccc2c(=O)[nH]cc([C@@H](C)N(C)C(=O)Nc3ccc(F)c(Cl)c3)c12	1.5	> 25	–	–	–
CCN(C(=O)Nc1ccc(F)c(Cl)c1)C(C)c1c[nH]c(=O)c2ccccc12 (stereo not given)	0.025	> 25	–	32	62
O=C(NCc1c[nH]c(=O)c2ccccc12)Nc1ccc(F)c(Cl)c1	6.8	> 25	–	–	–
CN(Cc1c[nH]c(=O)c2ccccc12)C(=O)Nc1ccc(F)c(Cl)c1	0.47	> 25	–	–	–
C[C@H](c1c[nH]c(=O)c2cc(F)c(F)cc12)N(C)C(=O)[C@H]1Cc2ccccc2N1	0.3	> 25	–	–	–
COc1ccc2c([C@@H](C)N(C)C(=O)Nc3ccc(F)c(Cl)c3)c[nH]c(=O)c2c1	0.18	> 25	< 4	–	–
C[C@H](c1c[nH]c(=O)c2ccc(F)cc12)N(C)C(=O)Nc1ccc(F)c(Cl)c1	0.032	> 25	82 (≈ 32.1 µg/mL)	–	–
C[C@H](c1c[nH]c(=O)c2cc(F)c(F)cc12)N(C)C(=O)Nc1cccc(Cl)c1	0.018	> 25	72 (≈ 28.2 µg/mL)	30	32
COCCN(Cc1c[nH]c(=O)c2ccccc12)C(=O)Nc1ccc(F)c(Cl)c1	0.47	> 25	–	–	–
Cc1cc(NC(=O)N(C)[C@H](C)c2c[nH]c(=O)c3cc(F)c(F)cc23)ccc1F	0.007	> 25	95 (≈ 37 µg/mL)	60	42
CC(c1c[nH]c(=O)c2ccccc12)N(C(=O)Nc1ccc(F)c(Cl)c1)C1CC1 (stereo not given)	0.055	> 25	–	172	152
CCN(Cc1c[nH]c(=O)c2ccccc12)C(=O)Nc1ccc(F)c(Cl)c1	0.16	> 25	–	–	–
C[C@H](c1c[nH]c(=O)c2cc(F)c(F)cc12)N(C)C(=O)Nc1ccc(F)cc1	0.024	> 25	190 (≈ 71.3 µg/mL)	35	17
